Results on eight molecules are retold here after PMC4624771, “Oriented Cell Division in the C. elegans Embryo Is Coordinated by G-Protein Signaling Dependent on the Adhesion GPCR LAT-1” (PLoS Genetics, 2015).

In one assay the test system is lat-1(ok1465) nematodes. Nature of the assay: Lethality rescue assay in lat-1 mutant nematodes. It is filed as in vivo. The settings on record: L4 larvae and subsequently embryos incubated; forskolin 80 μM, IBMX 10 mM, 8-Br-cAMP 0.25 mM. An excerpt:
Fig 2 Division plane defects in lat-1 mutant embryos are rescued by elevation of intracellular cAMP via a Gs protein/adenylyl cyclase pathway. […] In wild-type embryos treated with the RNAi control vector L4440 ABal divides in an anterior-posterior direction (A) whereas in treated lat-1 mutants the division plane is almost perpendicular to MS (B). gsa-1 RNAi by feeding over two generations leads to a turning of the F2 ABal division plane in a direction similar to that in lat-1 mutants (C). F2 lat-1; gsa-1(RNAi) embryos show a similar ABal division plane to lat-1 mutants (D). (E) Cell division plane angles of ABal relative to MS after knockdown of gsa-1. […] The vector L4440 served as negative control. Data are shown as means ± SD. * p < 0.05; *** p < 0.001; n ≥ 11. (F) cAMP levels are reduced in lat-1 embryos compared to a control wild-type population. cAMP levels were measured after lysis (15 μg protein) by cAMP accumulation assay. Assays were performed in three independent experiments, data are given as means ± SD. ** p < 0.01. (G) Rescue of developmental lethality in lat-1 nematodes treated with compounds promoting cAMP accumulation: forskolin (80 μM), IBMX (10 mM) and 8-Br-cAMP (0.25 mM). Mothers and subsequently offspring of wild-type and lat-1 individuals were incubated and individuals reaching adulthood were scored (n = 410). As controls, nematodes were incubated in solvent without drug (mock). Data are shown as means ± SD. * p < 0.05; ** p < 0.01; *** p < 0.001. (H) Forskolin increases cAMP levels in C. elegans embryos and adults. lat-1 mutants and subsequently embryos were incubated with 80 μM forskolin. […] As controls, nematodes were treated with 0.8% DMSO lacking forskolin (mock). Basal cAMP levels of mock control are: 0.70 ± 0.14 nM (wild-type embryos); 0.37 ± 0.19 nM (lat-1 embryos); 1.9 ± 0.7 nM (wild-type adults); 2.3 ± 0.8 nM (lat-1 adults). Assays were performed in three independent experiments, data are given as means ± SD. * p < 0.05; ** p < 0.01; *** p < 0.001. (I-L) Relative positions of ABala, ABalp, and MS in an AB^4 embryo. Schematic representation (top) and DIC microscopy (bottom), scale bars = 10 μm. In wild-type embryos (I) and embryos incubated in 80 μM forskolin for 120 minutes (K) ABal divides in an anterior-posterior direction with only ABalp forming an interface with MS. In lat-1 mutants the division plane is skewed resulting in ABala and ABalp contacting MS (J). lat-1 embryos treated with 80 μM forskolin for 120 minutes display wild-type division and cell interfaces (L). (M) Arrangement of blastomeres in the 12-cell stage embryo. […] The right-hand side is two views of the mean positions of the blastomeres. The spheres are enlarged to convey an impression of the contacts. Forskolin turns the ABal spindle in the mutant in a more anterior direction. (N) Cell division plane angles of ABal relative to MS of untreated wild-type/lat-1 controls and wild-type/lat-1 embryos after incubation of mothers and subsequently embryos for 48 hours in 80 μM forskolin. Upon forskolin treatment, mutant embryos display a wild-type division angle. As controls, nematodes were treated with 0.8% DMSO lacking forskolin (mock). Data are shown as average angles ± SD, *** p < 0.001; n ≥ 12. (O) Forskolin reduces the contact length of ABala to MS. Ratio of relative contact lengths of ABala to MS and ABalp to MS cells lat-1 embryos untreated (control, n = 10) and after incubation of mothers and subsequently embryos for 48 hours in 80 μM forskolin (n = 11). […] Data were calculated from pixel analyses utilizing DIC images and are shown as means ± SD, ** p < 0.01.
All compounds were obtained from Sigma Aldrich. Forskolin was dissolved in DMSO to 10 mM, 3-isobutyl-1-methylxanthine (IBMX) in Dent´s buffer to 10 mM, 8-bromoadenosine 3′,5′-cyclic monophosphate (8-Br-cAMP) in 1 N ammonium hydroxide to 250 mM and 2',5'-dideoxyadenosine (ddA) was diluted in DMSO to 100 mM prior to final dilution in Dent´s buffer. […]

For a further assay, the system named is LAT-1. Nature of the assay: Peptide-stimulated cAMP accumulation assay, lat-1-transfected COS-7 cells. It is filed as cell-based, C. elegans. As to conditions: 1 mM peptide; for agonistic activity at LAT-1 in vitro (cAMP levels), in words: lat-1-transfected COS-7 cells, cAMP accumulation assay. An excerpt: Fig 3 An agonistic sequence C-terminal of the GPS cleavage site activates LAT-1 in vitro. (A) Evolutionary conservation of the putative agonistic region C-terminal of the GPCR proteolytic site (GPS) cleavage site in different latrophilin homologs. The GPS is part of the GPCR-autoproteolysis inducing (GAIN) domain, a characteristic feature of most aGPCRs which is located N-terminal of the first transmembrane domain (TM1). Sequences were retrieved from NCBI/GenBank and aligned utilizing Jalview 2 [36]. (B, F) Peptide-stimulated cAMP response of LAT-1 (B) and rat LPHN1 (F). COS-7 cells transfected with 0.2 μg empty control vector (pcDps) or plasmid encoding the latrophilin homolog, respectively, were stimulated with 1 mM peptide and cAMP levels were measured by cAMP accumulation assay. A mutated peptide served as negative control (CMP12/RMP13). […] Basal cAMP levels (empty vector, no peptide) are 5.3 ± 1.3 nM. Data are given as means ± SD of five independent experiments, each performed in triplicate. * p < 0.05; ** p < 0.01. (C) LPHN1 is expressed in COS-7 cells. Cells were transfected with 500 ng/well of empty vector (pcDps) or plasmid encoding either rat LPHN1, human P2Y12, or human V2R. […] Expression of the human vasopressin type 2 receptor V2R is shown as a comparison. The non-specific OD value (empty vector) was 0.06 ± 0.03 (set 0%) and the OD value of P2Y12 was 1.28 ± 0.12 (set 100%). Data are given as means ± SD of at least three independent experiments. *** p < 0.001. […] To analyze functional Gi coupling, the chimeric Gαqi4 protein was applied to reroute a potential Gi-protein pathway to the […]. For each assay, 1.5 μg/well of plasmid encoding LPHN1 was transfected (for Gi-protein coupling, co-transfection with 100 ng of chimeric Gαqi4 protein was performed). No activation of any of the signaling pathway was observed. Basal IP levels are: 220 ± 34 CPM/well (empty vector); 234 ± 39 CPM/well (empty vector + Gαqi4). Data are given as means ± SD of three independent experiments, each performed in triplicate. n.s. not significant. (E) LPHN1 couples to Gαs. COS-7 cells were transfected with increasing amounts of empty control vector (pcDps) or plasmid encoding either rat LPHN1, human V2R or human P2Y12, and cAMP levels were measured after 48 hours. cAMP concentrations are shown as fold change over empty control vector, basal cAMP levels: 6.2 ± 2.3 nM (200 ng); 6.1 ± 2.5 nM (300 ng); 5.1 ± 2.6 nM (400 ng); 6.1 ± 4.5 nM (500 ng). The Gs-protein coupling V2R served as positive and the predominantly Gi-protein coupling P2Y12 as negative control. Data are given as means ± SD of three independent experiments, each performed in triplicate. *** p < 0.001.
For functional assays, COS-7 cells were transiently transfected. To determine total as well as cell surface expression of receptors carrying N-terminal HA and C-terminal FLAG tags, indirect cellular enzyme-linked immunosorbent assays (ELISA) were employed. cAMP concentrations were measured using the ALPHAScreen cAMP assay kit (PerkinElmer Life Sciences) according to the manufacturer's protocol. IP formation was determined as previously described. Assay data was analyzed with GraphPad Prism version 5.0 (GraphPad Software). Statistics were performed using a two-way ANOVA in combination with Bonferroni as post-hoc test. For details see Supporting Experimental Procedures.
COS-7 cells were grown in Dulbecco's Modified Eagle Medium (DMEM) supplemented with 10% fetal bovine serum, 100 U/ml penicillin and 100 μg/ml streptomycin at 37°C and 5% CO2 in a humidified atmosphere. […]
In general terms: Changes in cAMP serve as a functional read-out for many G protein-coupled receptors.

Assay [1] relates to lat-1 mutant nematodes expressing lat-1 with a lat-2 GPS. The assay is described as follows: Peptide-mediated rescue of lethality in lat-1 mutants expressing lat-1 with a lat-2 GPS. As to conditions: mothers and subsequently offspring soaked in 0.1 mM peptide, n ≥ 350. It is filed as in vivo, C. elegans. The procedure: Fig 4 The agonistic sequence of LAT-1 triggers receptor function in vivo. (A) Domain architecture of LAT-1 with an exchange of the GPS for the LAT-2 GPS. (B) Peptide-mediated rescue of lethality in lat-1 mutant nematodes expressing lat-1 with a lat-2 GPS. Mothers and subsequently offspring were soaked in 0.1 mM of peptide and individuals reaching adulthood were scored (n ≥ 350). […] Negative controls: mutated peptide CMP12 and a peptide derived from rat LPHN1 (RP13). Data are shown as means ± SD, **p<0.01; ***p<0.001. (C) Transgenically expressed lat-1 ^T530A/F532A::gfp exclusively rescues fertility defects of lat-1 mutants. Nematodes expressing lat-1 ^T530A/F532A::gfp in a lat-1 mutant background display lethality but no fertility defects compared to a lat-1::gfp transgenic control. (D) Expression and protein localization of lat-1::gfp (top) is indistinguishable from lat-1 ^T530A/F532A::gfp (bottom). Arrows indicate expression.
All compounds were obtained from Sigma Aldrich. Forskolin was dissolved in DMSO to 10 mM, 3-isobutyl-1-methylxanthine (IBMX) in Dent´s buffer to 10 mM, 8-bromoadenosine 3′,5′-cyclic monophosphate (8-Br-cAMP) in 1 N ammonium hydroxide to 250 mM and 2',5'-dideoxyadenosine (ddA) was diluted in DMSO to 100 mM prior to final dilution in Dent´s buffer. Peptides were synthesized (see Supporting Experimental Procedures) and dissolved in DMSO to 100 mM prior to final dilution in M9. Worms were incubated in 80 μM forskolin, 10 mM IBMX, 0.25 mM 8-Br-cAMP, 1 mM ddA or 0.1 mM peptide solution, respectively, containing E. coli OP50.
The lethality rescue assay was conducted as previously described. Fifty L4 hermaphrodites were transferred into wells of a 72-well flat-bottom Terasaki plates (Greiner Bio-One) containing OP50 and allowed to lay eggs for 24 hours at 22°C. Five to ten eggs were transferred into fresh wells with corresponding solutions and incubated at 22°C. The number of dead/surviving embryos was scored 24 hours later, the number of adult animals 48 hours later on an inverted microscope. Data were examined with an unpaired two-tailed t test for each genotype and condition.

With `Nc1ncnc2c1nc(Br)n2[C@@H]1O[C@@H]2COP(=O)(O)O[C@H]2[C@H]1O` [8-Br-cAMP, 8-bromoadenosine 3′,5′-cyclic monophosphate], the “effect on embryonic lethality of lat-1 worms, in words” value in the assay with lat-1(ok1465) nematodes is recorded as “amelioration of embryonic lethality”.

For the molecule `CC(C)Cn1c(=O)n(C)c(=O)c2[nH]cnc21` [IBMX, 3-isobutyl-1-methylxanthine], the “effect on embryonic lethality of lat-1 worms, in words” value with lat-1(ok1465) nematodes is “amelioration of embryonic lethality”.

Take “CMP12: CP12-derived peptide with positions +1 (T530) and +3 (F532) mutated to alanine (AHAAVLMDVRGH)”: the “agonistic activity at LAT-1 in vitro (cAMP levels), in words” value (from here on “agonistic activity at LAT-1 in vitro”) in the assay on LAT-1 is given as “did not display any activity”. Besides, the “rescue of tissue polarity phenotype / activity in vivo, in words” value in assay [1] is reported as “not display any activity in vivo”.

In the case of “CP9: peptide comprising the LAT-1 sequence C-terminal of the GPS cleavage site (THFAVLMDV)”, the “agonistic activity at LAT-1 in vitro” value with LAT-1 is given as “no agonistic activity in vitro”. Moreover, in assay [1], the “rescue of tissue polarity phenotype / activity in vivo, in words” value is given as “not display any activity in vivo”.

Regarding “CP10: peptide comprising the LAT-1 sequence C-terminal of the GPS cleavage site (THFAVLMDVR)”, the “agonistic activity at LAT-1 in vitro” value in the assay with LAT-1 is reported as “no agonistic activity in vitro”. Also, the “rescue of tissue polarity phenotype / activity in vivo, in words” value in assay [1] is listed as “not display any activity in vivo”.

In the case of “CP12: peptide of 12 amino acids comprising the LAT-1 sequence C-terminal of the GPS cleavage site (THFAVLMDVRGH)”, the “increase of cAMP concentration above basal levels” value in the assay on LAT-1 (lat-1-transfected COS-7 cells (0.2 μg plasmid), ALPHAScreen cAMP assay, means of five independent experiments, each in triplicate) was 1.6 fold. In addition, in the assay on LAT-1, the “agonistic activity at LAT-1 in vitro” value is recorded as “increased cAMP levels”. Further, the “rescue of tissue polarity phenotype / activity in vivo, in words” value in assay [1] is on record as “efficiently rescued”.

For the molecule “CP13: peptide of 13 amino acids comprising the LAT-1 sequence C-terminal of the GPS cleavage site (THFAVLMDVRGHD)”, the “agonistic activity at LAT-1 in vitro” value in the assay with LAT-1 is “increased cAMP levels”. In addition, the “rescue of lethality (individuals reaching adulthood)” value in assay [1] (means ± SD, untreated controls 26 ± 7%) was 46 ± 12%. Besides, the “rescue of tissue polarity phenotype / activity in vivo, in words” value in assay [1] was “efficiently rescued”.

“CP14: peptide comprising the LAT-1 sequence C-terminal of the GPS cleavage site (THFAVLMDVRGHDL)”: in the assay on LAT-1, the “agonistic activity at LAT-1 in vitro” value is on record as “no agonistic activity in vitro”. The “rescue of tissue polarity phenotype / activity in vivo, in words” value in assay [1] is “not display any activity in vivo”.
